≈ marks a conversion by molar mass, not a printed value.
How the values were obtained:
IGROV-1 [1] = assay: Antiproliferative activity against human IGROV-1 cells assessed as inhibition of cell growth incubated for 72 hrs by Coulter counter assay; format: functional, cell-based; details: IGROV-1, 72 h
IGROV-1 [2] = assay: Antiproliferative activity against human IGROV-1 cells assessed as inhibition of cell growth incubated for 72 hrs in serum-free medium by Coulter counter assay; format: functional, cell-based; details: IGROV-1, 72 h
[3] = molecular target: RAC-alpha serine/threonine-protein kinase (Homo sapiens, UniProt P31749); assay: Inhibition of AKT1 (unknown origin) in presence of ATP by ELISA
HEp-2 = assay: Cytotoxicity against human HEp-2 cells assessed as cell growth inhibition by measuring effective dose; format: functional; details: read-out: ED50 (the source's name)
SMMC-7721 = assay: Cytotoxicity against human SMMC-7721 cells assessed as cell growth inhibition incubated for 48 hrs by MTT assay; format: functional, cell-based; details: SMMC-7721, 48 h
B16 = assay: Cytotoxicity against mouse B16 cells assessed as cell growth inhibition incubated for 48 hrs by MTT assay; format: functional, cell-based; details: B16, 48 h
HeLa [4] = assay: Cytotoxicity against human HeLa cells assessed as cell growth inhibition incubated for 48 hrs by MTT assay; format: functional, cell-based
MCF-10A = assay: Cytotoxicity against human MCF-10A cells assessed as cell growth inhibition by alamar blue assay; format: functional, cell-based
MDA-MB-231 [5] = assay: Cytotoxicity against human MDA-MB-231 cells assessed as cell growth inhibition by alamar blue assay; format: functional, cell-based
Jurkat = assay: Cytotoxicity against human Jurkat cells assessed as cell growth inhibition by alamar blue assay; format: functional, cell-based
HeLa [6] = assay: Cytotoxicity against human HeLa cells assessed as cell growth inhibition by alamar blue assay; format: functional, cell-based
MCF7 = assay: Cytotoxicity against human MCF7 cells assessed as cell growth inhibition by MTT assay; format: functional, cell-based
U-937 = assay: Cytotoxicity against human U-937 cells assessed as cell growth inhibition by alamar blue assay; format: functional, cell-based
[7] = Cytotoxicity against human HEK293F cells; format: toxicity, cell-based
ACHN [8] = assay: Cytotoxicity against human ACHN cells; format: functional, cell-based
MKN-45 = assay: Cytotoxicity against human MKN-45 cells; format: functional, cell-based
SK-MEL-2 = assay: Cytotoxicity against human SK-MEL-2 cells assessed as inhibition of cell growth by measuring its effective dose; format: functional; details: read-out: ED50 (the source's name)
HCT-15 = assay: Cytotoxicity against human HCT-15 cells assessed as inhibition of cell growth by measuring its effective dose; format: functional; details: read-out: ED50 (the source's name)
SK-OV-3 = assay: Cytotoxicity against human SK-OV-3 cells assessed as inhibition of cell growth by measuring its effective dose; format: functional; details: read-out: ED50 (the source's name)
XF498 = assay: Cytotoxicity against human XF498 cells assessed as inhibition of cell growth by measuring its effective dose; format: functional; details: read-out: ED50 (the source's name)
A549 [9] = assay: Cytotoxicity against human A549 cells assessed as inhibition of cell growth by measuring its effective dose; format: functional; details: read-out: ED50 (the source's name)
KB [10] = assay: Cytotoxicity against human KB cells by MTT assay; format: functional, cell-based
K562 [11] = assay: Cytotoxicity against human K562 cells by MTT assay; format: functional, cell-based
Col2 = assay: Cytotoxicity against human Col2 cells assessed as cell growth inhibition incubated for 24 hrs by MTT assay; format: functional, cell-based; details: Col2, 24 h
A549 [12] = assay: Cytotoxicity against human A549 cells assessed as cell growth inhibition incubated for 24 hrs by MTT assay; format: functional, cell-based; details: A549, 24 h
K562 [13] = assay: Cytotoxicity against human K562 cells assessed as cell growth inhibition incubated for 24 hrs by MTT assay; format: functional, cell-based; details: K562, 24 h
KB [14] = assay: Cytotoxicity against human KB cells assessed as cell growth inhibition incubated for 24 hrs by MTT assay; format: functional, cell-based
MDA-MB-231 [15] = assay: Cytotoxicity against human MDA-MB-231 cells assessed as cell growth inhibition incubated for 24 hrs by MTT assay; format: functional, cell-based; details: MDA-MB-231, 24 h
K562 [16] = assay: Antiproliferative activity against human K562 cells assessed as reduction in cell viability incubated for 48 hrs by CCK-8 assay; format: functional, cell-based; details: K562, 48 h
P388 = assay: Cytotoxicity against mouse P388 cells; format: functional, cell-based; details: Mus musculus, P388; read-out: IC50
L1210 = assay: Cytotoxicity against mouse L1210 cells; format: functional, cell-based
T-24 = assay: Cytotoxicity against human T24 cells assessed as cell viability; format: functional
ACHN [17] = assay: Cytotoxicity against human ACHN cells assessed as cell viability; format: functional

Sequence of RAC-alpha serine/threonine-protein kinase (P31749 whole entry): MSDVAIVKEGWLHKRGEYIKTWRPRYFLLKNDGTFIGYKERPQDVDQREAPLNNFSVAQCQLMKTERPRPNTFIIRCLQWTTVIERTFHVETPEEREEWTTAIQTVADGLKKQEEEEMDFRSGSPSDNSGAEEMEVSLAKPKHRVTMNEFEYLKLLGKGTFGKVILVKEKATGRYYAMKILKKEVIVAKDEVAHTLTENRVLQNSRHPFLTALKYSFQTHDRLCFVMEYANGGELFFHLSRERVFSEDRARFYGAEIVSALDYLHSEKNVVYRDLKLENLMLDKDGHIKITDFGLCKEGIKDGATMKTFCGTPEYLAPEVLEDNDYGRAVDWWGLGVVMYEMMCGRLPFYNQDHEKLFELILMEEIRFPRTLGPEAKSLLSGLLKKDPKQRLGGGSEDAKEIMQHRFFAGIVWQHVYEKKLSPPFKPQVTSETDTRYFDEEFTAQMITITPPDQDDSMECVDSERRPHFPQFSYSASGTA

Which IC50 (IGROV-1 [1]) does the source give for `CCCCCCCCCC(=O)OCC(COC(=O)CCCCCCCCC)O[C@@H]1O[C@H](C(=O)O)[C@@H](O)[C@H](O)[C@H]1O` here?
The IC50 was 156000 nM.

And the IC50 (IGROV-1 [2])?
The IC50 was 9400 nM.

What about the IC50 [3] of the same compound?
The IC50 was 30800 nM.

For `CCCCCCCCCCCC(=O)O[C@@H]1[C@@H](O)[C@@H](OC(=O)/C=C/c2ccccc2)[C@H](O[C@@H]2[C@@H](O[C@@H]3O[C@@H](C)[C@H](O)[C@@H](O)[C@H]3O)[C@@H](OC(=O)C(C)C)[C@H](O[C@@H]3[C@@H](O)[C@H]4OC(=O)CCCCCCCCC[C@@H](CCCCC)O[C@@H]5O[C@H](C)[C@@H](O)[C@H](O)[C@H]5O[C@@H]4O[C@H]3C)O[C@H]2C)O[C@H]1C`, which EC50 (HEp-2) is on record?
The EC50 was 2 µg/mL (≈ 1.46 µM).

Which results are given for `CC/C=C\C/C=C\C/C=C\CCCCCCCC(=O)OCC(CO[C@H]1O[C@H](CN)[C@@H](O)[C@H](O)[C@H]1O)OC(=O)CCCCCCC/C=C\C/C=C\C/C=C\CC` (stereo partly drawn)?
IC50 (SMMC-7721): 70.3 µg/mL (≈ 90.8 µM); IC50 (B16): 70.3 µg/mL (≈ 90.8 µM); IC50 (HeLa [4]): 70.3 µg/mL (≈ 90.8 µM)

With `CC/C=C\C/C=C\C/C=C\CCCCCCCC(=O)OCC(CO[C@H]1O[C@H](CNC(=O)CCc2ccc(O)cc2)[C@@H](O)[C@H](O)[C@H]1O)OC(=O)CCCCCCC/C=C\C/C=C\C/C=C\CC` (stereo partly drawn) as the compound, how does the IC50 (SMMC-7721) read?
The IC50 was 70.3 µg/mL (≈ 76.2 µM).

What about the IC50 (B16) of the same compound?
The IC50 was 70.3 µg/mL (≈ 76.2 µM).

And the IC50 (HeLa [4])?
Its IC50 is 70.3 µg/mL (≈ 76.2 µM).

For `C/C=C(\C)C(=O)O[C@@H]1[C@@H](O)[C@@H]2O[C@H]3[C@H](O[C@@H](CCCCC)CCCCCCCCCC(=O)OC[C@@H](O2)[C@H]1OC(=O)/C=C/c1ccccc1)O[C@H](C)[C@H](OC(C)=O)[C@@H]3O`, which IC50 (MCF-10A) is on record?
The IC50 was 30.7 nM.

What about the IC50 (MDA-MB-231 [5]) of the same compound?
The IC50 was 16.1 nM.

And the IC50 (Jurkat)?
The IC50 was 9.7 nM.

What about the IC50 (HeLa [6]) of the same compound?
The IC50 was 14.9 nM.

And the IC50 (MCF7)?
The IC50 was 33 nM.

What about the IC50 (U-937) of the same compound?
The IC50 was 11.1 nM.

Which results are given for `CCCCCCCC(=O)O[C@H]1[C@H](OC[C@@H](O)[C@@H](O)[C@H](O)CO)O[C@H](COC(=O)CCCCC)[C@@H](OC(=O)CCCCC)[C@@H]1OC(=O)CCCCC`?
IC50 [7]: 8900 nM; IC50 (ACHN [8]): 6800 nM; IC50 (MKN-45): 7500 nM

For `CCCCCCCCCCCCCCCCOC[C@H](O)COC1[C@@H](O)[C@H](O)[C@@H](O)[C@@H]1O`, which EC50 (SK-MEL-2) is on record?
Its EC50 is 4.3 µg/mL (≈ 9.58 µM).

What about the EC50 (HCT-15) of the same compound?
The EC50 was 4.3 µg/mL (≈ 9.58 µM).

What about the EC50 (SK-OV-3) of the same compound?
The EC50 was 4.3 µg/mL (≈ 9.58 µM).

And the EC50 (XF498)?
The EC50 was 4.3 µg/mL (≈ 9.58 µM).

And the EC50 (A549 [9])?
Its EC50 is 4.3 µg/mL (≈ 9.58 µM).

What does the source list for `C/C=C(\C)[C@H](O)[C@H](C)/C=C/C=C/C/C(C)=C/Cc1nc(OC)c(OC)c(OC2O[C@@H](C)[C@H](O)[C@@H](O)[C@H]2O)c1C` (stereo partly drawn)?
IC50 (KB [10]): 4.5 µg/mL (≈ 8.22 µM); IC50 (K562 [11]): 2.9 µg/mL (≈ 5.29 µM)

For `CCCCCCCCO[C@@H]1O[C@@H](C)[C@H](OC(=O)CCCCC)[C@@H](O[C@@H]2O[C@@H](C)[C@H](OC(C)=O)[C@@H](O[C@@H]3O[C@@H](C)[C@H](OC(C)=O)[C@@H](O[C@@H]4O[C@@H](C)[C@H](O)[C@@H](O)[C@H]4OC(C)=O)[C@H]3OC(C)=O)[C@H]2OC(C)=O)[C@H]1O`, which IC50 (Col2) is on record?
Its IC50 is 700 nM.

What about the IC50 (A549 [12]) of the same compound?
The IC50 was 700 nM.

What about the IC50 (K562 [13]) of the same compound?
The IC50 was 700 nM.

And the IC50 (KB [14])?
The IC50 was 700 nM.

What about the IC50 (MDA-MB-231 [15]) of the same compound?
Its IC50 is 700 nM.

With `CCCCCCCCCCN1C[C@H](NC(C)=O)[C@@H](O)[C@H](O)C1=O` as the compound, how does the IC50 (K562 [16]) read?
Its IC50 is 19800 nM.

For `CO[C@@H]1[C@H](O[C@@H]2CO[C@@H](O[C@@H]3[C@@H](O)[C@H](O)CO[C@H]3N3C(=O)/C(=C(O)/C=C/C=C/C=C/C=C/C=C(Cl)/C=C(\C)Cl)C(=O)[C@@H]3CC(N)=O)[C@@H](O)[C@@H]2O)O[C@H](C)[C@H]1O` [AURANTOSIDE A], which IC50 (P388) is on record?
The IC50 was 1.8 µg/mL (≈ 2.2 µM).

What about the IC50 (L1210) of the same compound?
The IC50 was 3.4 µg/mL (≈ 4.16 µM).

For `C\C(Cl)=C/C(Cl)=C/C=C/C=C/C=C/C=C/C(O)=C1\C(=O)[C@H](CC(N)=O)N([C@@H]2OC[C@@H](O)[C@H](O)[C@H]2O[C@@H]2OC[C@@H](O[C@@H]3O[C@H](C)[C@@H](O)[C@@H]3O)[C@@H](O)[C@@H]2O)C1=O` [AURANTOSIDE B], which IC50 (P388) is on record?
Its IC50 is 3.2 µg/mL (≈ 3.98 µM).

And the IC50 (L1210)?
The IC50 was 3.3 µg/mL (≈ 4.11 µM).

With `COc1cccc2c1C(=O)c1c(O)c3c(c(O)c1C2=O)C[C@@](O)(C(=O)CO)C[C@@H]3O[C@H]1C[C@H](N)[C@H](O)[C@H](C)O1` [DOXORUBICIN] as the compound, how does the Activity (T-24) read?
Its Activity is 79%.

With `CC(=O)O[C@H]1C(=O)[C@@]2(C)[C@H]([C@H](OC(=O)c3ccccc3)[C@]3(O)C[C@H](OC(=O)[C@H](O)[C@@H](NC(=O)c4ccccc4)c4ccccc4)C(C)=C1C3(C)C)[C@]1(OC(C)=O)CO[C@@H]1C[C@@H]2O` [PACLITAXEL] as the compound, how does the Activity (ACHN [17]) read?
Its Activity is 65.8%.

From ChEMBL document CHEMBL5260828, “Amphiphilic glycoconjugates as potential anti-cancer chemotherapeutics” (Eur J Med Chem, 2018)
